We go through 23 molecules from patent publication EP0549352B1, “Tricyclic compounds as angiotensin II antagonists” (KYOWA HAKKO KOGYO CO., LTD., priority 1991, dated 1993).

What is called inhibition is how much of the control response was suppressed.

The first experiment addresses T1, AII receptor (Bos taurus, UniProt P25104).
T1 construct: Tissue of bovine adrenal cortex was finely cut and suspended; from tissue; host or cells: bovine adrenal cortex membrane fraction
T1 sequence (P25104 1-359): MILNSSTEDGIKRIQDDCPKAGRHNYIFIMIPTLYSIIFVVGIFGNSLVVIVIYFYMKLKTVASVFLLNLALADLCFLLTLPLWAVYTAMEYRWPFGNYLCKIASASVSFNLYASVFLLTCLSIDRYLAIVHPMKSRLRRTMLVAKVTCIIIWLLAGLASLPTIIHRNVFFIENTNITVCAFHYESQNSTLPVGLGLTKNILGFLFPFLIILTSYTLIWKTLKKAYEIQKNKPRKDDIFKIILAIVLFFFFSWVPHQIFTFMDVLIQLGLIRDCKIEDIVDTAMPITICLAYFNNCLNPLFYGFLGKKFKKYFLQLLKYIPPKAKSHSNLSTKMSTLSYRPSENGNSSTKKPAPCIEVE
Nature of the experiment: Receptor binding test using bovine adrenal cortex ([125I]AII binding). The settings on record: test compound 0.1 µM; receptor binding of [125I]AII (2.5 × 10^-10M); bovine adrenal cortex membranes; room temperature, 2 hours; 0.1 µM. The procedure: Receptor binding test using bovine adrenal cortex
Tissue of bovine adrenal cortex was finely cut and suspended in a 0.25M sucrose solution containing NaHCO3, ethylenediaminetetraacetic acid (EDTA), leupepsin, pepstatin A and phenylmethanesulfonyl fluoride, followed by homogenization. The homogenate was centrifuged at 3,000 rpm for 10 minutes and the supernatant was centrifuged at 9,000 rpm. Then, the supernatant was further centrifuged at 30,000 rpm for 60 minutes and the precipitate was suspended in NaHCO3-EDTA solution, followed by centrifugation at 30,000 rpm for 60 minutes. The resulting precipitate was suspended in a phosphate buffer and the suspension was used for the binding test as an AII receptor source.
To a test compound or a solvent were added 250 µl of the AII receptor solution prepared above, 250 µl of Tris 50 mM buffer containing 0.2% bovine serum albumin (BSA), and 20 µl of [^125I]AII (2.5 × 10^-10M). The mixture was allowed to stand at room temperature for 2 hours and then filtered through a glass fiber filter (GF/B Wattman). The filter was placed in a test tube and the radioactivity was measured using a gamma-counter.
The inhibitory activity (inhibition rate) of the test compound (0.1 µM) against the receptor binding of [^125I]AII was calculated by the following equation. Inhibition Rate (%) =(1-((Binding Amount in the Presence of a Test Compound)-(Nonspecific Binding Amount))/((Total Binding Amount)-(Nonspecific Binding Amount)))× 100 [formula]
The binding amount in the presence of a test compound is the amount of radioactivity of [^125I]AII bound in the presence of a test compound (0.1 µM).
The total binding amount is the amount of radioactivity of [^125I]AII bound in the absence of a test compound.
The nonspecific binding amount is the amount of radioactivity of [^125I]AII bound in the presence of 1 µM AII.
As to `CCc1nc2c(C)cc(C)nc2n1Cc1ccc2c(c1)CCc1ccccc1C2=Cc1nnn[nH]1` (single isomer, unassigned) [Compound 20B, 2-(5,7-Dimethyl-2-ethyl-3H-imidazo[4,5-b]pyridin-3-yl)methyl-5-(1H-tetrazol-5-yl)methylene-5H-10,11-dihydrodibenzo[a,d]cycloheptene], the “Inhibition Rate (%)” value came to 88%.
On the same count and under the same terms, to `CCc1nc2c(C)cc(C)nc2n1Cc1ccc2c(c1)OCc1ccccc1C2=Cc1nnn[nH]1` [Compound 6-E, 3-(5,7-Dimethyl-2-ethyl-3H-imidazo[4,5-b]pyridin-3-yl)methyl-11-(1H-tetrazol-5-yl)methylene-6,11-dihydrodibenz[b,e]oxepine] belongs 87%.

The same experiment, now with this note: test compound 0.1 µM; receptor binding of [125I]AII (2.5 × 10^-10M); bovine adrenal cortex membranes; room temperature, 2 hours; listed as 6-Z*, 0.1 µM.
Consider `CCc1nc2c(C)cc(C)nc2n1Cc1ccc2c(c1)OCc1ccccc1C2=Cc1nnn[nH]1` [Compound 6-Z, 3-(5,7-Dimethyl-2-ethyl-3H-imidazo[4,5-b]pyridin-3-yl)methyl-11-(1H-tetrazol-5-yl)methylene-6,11-dihydrodibenz[b,e]oxepine], for which the “Inhibition Rate (%)” value stood at 66%.

Still in this experiment, the particulars now being: test compound 0.1 µM; receptor binding of [125I]AII (2.5 × 10^-10M); bovine adrenal cortex membranes; room temperature, 2 hours; read-out: Inhibition Rate (%).
For `CCc1nc2c(C)cc(C)nc2n1Cc1ccc2c(c1)OCc1ccsc1C2=CC(=O)O` [Compound 11, [7-(5,7-Dimethyl-2-ethyl-3H-imidazo[4,5-b]pyridin-3-yl)methyl-4,10-dihydrothieno[3,2-c][1]benzoxepin-10-yliden]acetic acid], the inhibition at 0.1 µM is 84%.
On the same count and under the same terms, the figure for `CCCCC(=O)N(Cc1ccc2c(c1)CCc1ccccc1N2Cc1nnn[nH]1)C(C(=O)O)C(C)C` (centres unmarked) [Compound 40, N-[[5-(1H-Tetrazol-5-yl)methyl-5H-10,11-dihydrodibenz[b,f]azepin-2-yl]methyl]-N-valerylvaline] is 95%; for `CCCc1nc2c(C)cccc2n1Cc1ccc2c(c1)OCc1ccccc1C2=CC(=O)O` [Compound 1, [3-(4-Methyl-2-propylbenzimidazol-1-yl)methyl-6,11-dihydrodibenz[b,e]oxepin-11-yliden]acetic acid] it is 43%; for `Cc1cc(C)c2nc(C3CC3)n(Cc3ccc4c(c3)CCc3ccccc3N4Cc3nnn[nH]3)c2n1` [Compound 34, 2-(5,7-Dimethyl-2-cyclopropyl-3H-imidazo[4,5-b]pyridin-3-yl)methyl-5-(1H-tetrazol-5-yl)methyl-5H-10,11-dihydrodibenz[b,f]azepine] it is 97%.
As for `CCc1nc2c(C)cc(C)nc2n1Cc1ccc2c(c1)c1ccccc1n2CCc1nnn[nH]1` [Compound 42, 3-(5,7-Dimethyl-2-ethyl-3H-imidazo[4,5-b]pyridin-3-yl)methyl-9-[2-(1H-tetrazol-5-yl)ethyl]carbazole], the inhibition at 0.1 µM was 85%.
As for `CCc1nc2c(C)cc(C)nc2n1Cc1ccc2c(c1)C=Cc1c(Br)cccc1C2=Cc1nnn[nH]1` [Compound 19, 1-Bromo-8-(5,7-dimethyl-2-ethyl-3H-imidazo[4,5-b]pyridin-3-yl)methyl-5-(1H-tetrazol-5-yl)methylene-5H-dibenzo[a,d]cycloheptene], the inhibition at 0.1 µM is 14%.
Still for that read-out and setting: the figure for `CCc1nc2c(C)cc(C)nc2n1Cc1ccc2c(c1)CCc1ccccc1C2=CC(=O)O` [Compound 16, [2-(5,7-Dimethyl-2-ethyl-3H-imidazo[4,5-b]pyridin-3-yl)methyl-5H-10,11-dihydrodibenzo[a,d]cyclohepten-5-yliden]acetic acid] is 91%; for `Cc1cc(C)c2nc(C3CC3)n(Cc3ccc4c(c3)CCc3ccccc3C4Cc3nnn[nH]3)c2n1` (centres unmarked) [Compound 29, 2-(5,7-Dimethyl-2-cyclopropyl-3H-imidazo[4,5-b]pyridin-3-yl)methyl-5-(1H-tetrazol-5-yl)methyl-5H-10,11-dihydrodibenzo[a,d]cycloheptene] it is 92%.
Same read-out and setting: the figure for `CCc1nc2c(C)cc(C)nc2n1Cc1ccc2c(c1)CCc1ccccc1C2=Cc1nnn[nH]1` (single isomer, unassigned) [Compound 20A, 2-(5,7-Dimethyl-2-ethyl-3H-imidazo[4,5-b]pyridin-3-yl)methyl-5-(1H-tetrazol-5-yl)methylene-5H-10,11-dihydrodibenzo[a,d]cycloheptene] is 70%; for `CCc1nc2c(C)cc(C)nc2n1Cc1ccc2c(c1)CCc1ccccc1N2Cc1ccccc1C(=O)O` [Compound 38, 2-[[2-(5,7-Dimethyl-2-ethyl-3H-imidazo[4,5-b]pyridin-3-yl)methyl-5H-10,11-dihydrodibenz[b,f]azepin-5-yl]methyl]benzoic acid] it is 68%; for `CCc1nc2c(C)cc(C)nc2n1Cc1ccc2c(c1)OCc1ccccc1C2Cc1nnn[nH]1` (centres unmarked) [Compound 25, 3-(5,7-Dimethyl-2-ethyl-3H-imidazo[4,5-b]pyridin-3-yl)methyl-11-(1H-tetrazol-5-yl)methyl-6,11-dihydrodibenz[b,e]oxepine] it is 94%.
As for `CCc1nc2c(C)cc(C)nc2n1Cc1ccc2c(c1)SCc1ccccc1C2=Cc1nnn[nH]1` [Compound 22-E, 3-(5,7-Dimethyl-2-ethyl-3H-imidazo[4,5-b]pyridin-3-yl)methyl-11-(1H-tetrazol-5-yl)methylene-6,11-dihydrodibenzo[b,e]thiepine], the inhibition at 0.1 µM stood at 80%.
On the same count and under the same terms, to `CCc1nc2c(C)cc(C)nc2n1Cc1ccc2c(c1)COc1ccccc1C2=Cc1nnn[nH]1` [Compound 18-Z, 8-(5,7-Dimethyl-2-ethyl-3H-imidazo[4,5-b]pyridin-3-yl)methyl-11-(1H-tetrazol-5-yl)methylene-6,11-dihydrodibenz[b,e]oxepine] belongs 81%; to `CCc1nc2c(C)cc(C)nc2n1Cc1ccc2c(c1)OCc1ccccc1C2=CC(=O)O` [Compound 3, [3-(5,7-Dimethyl-2-ethyl-3H-imidazo[4,5-b]pyridin-3-yl)methyl-6,11-dihydrodibenz[b,e]oxepin-11-yliden]acetic acid], 78%; to `CCc1nc2c(C)cc(C)nc2n1Cc1ccc2c(c1)C=Cc1ccc(F)cc1C2=CC(=O)O` [Compound 4, [2-(5,7-Dimethyl-2-ethyl-3H-imidazo[4,5-b]pyridin-3-yl)methyl-7-fluoro-5H-dibenzo[a,d]cyclohepten-5-yliden]acetic acid], 77%.
On the same count and under the same terms, the figure for `CCc1nc2c(C)cc(C)nc2n1Cc1ccc2c(c1)CCc1ccccc1N2CC(=O)O` [Compound 33, 5-Carboxymethyl-2-(5,7-dimethyl-2-ethyl-3H-imidazo[4,5-b]pyridin-3-yl)methyl-5H-10,11-dihydrodibenz[b,f]azepine] is 88%; for `CCc1nc2c(C)cc(C)nc2n1Cc1ccc2c(c1)C=Cc1sccc1C2=CC(=O)O` [Compound 12, [7-(5,7-Dimethyl-2-ethyl-3H-imidazo[4,5-b]pyridin-3-yl)methyl-4H-benzo[4,5]cyclohepte[1,2-b]thiophen-4-yliden]acetic acid] it is 72%.
On to `CCc1nc2c(C)cc(C)nc2n1Cc1ccc2c(c1)OCc1ccc(Br)cc1C2=CC(=O)O` [Compound 7, [9-Bromo-3-(5,7-dimethyl-2-ethyl-3H-imidazo[4,5-b]pyridin-3-yl)methyl-6,11-dihydrodibenz[b,e]oxepin-11-yliden]acetic acid], for which the inhibition at 0.1 µM stood at 52%.
On the same count and under the same terms, to `CCc1nc2c(C)cc(C)nc2n1Cc1ccc2c(c1)CCc1ccccc1C2Cc1nnn[nH]1` (centres unmarked) [Compound 28, 2-(5,7-Dimethyl-2-ethyl-3H-imidazo[4,5-b]pyridin-3-yl)methyl-5-(1H-tetrazol-5-yl)methyl-5H-10,11-dihydrodibenzo[a,d]cycloheptene] belongs 83%; to `CCc1nc2c(C)cc(C)nc2n1Cc1ccc2c(c1)OCc1ccccc1C2CC(=O)O` (centres unmarked) [Compound 23, [3-(5,7-Dimethyl-2-ethyl-3H-imidazo[4,5-b]pyridin-3-yl)methyl-6,11-dihydrodibenz[b,e]oxepin-11-yl]acetic acid], 61%.
